The values below come from publication PMC5290001 (Clinical cancer research : an official journal of the …, 2016).

A short description of data set [1]: Temozolomide plasma pharmacokinetics. It counts as in vivo, human.
Data set [2] can be described thus: Phase 1 dose escalation: toxicity. It counts as in vivo, human.
Another data set concerns AML. Particulars: cited from earlier work; for Response rate: temozolomide 200 mg/m^2/day x 7 days, adults ≥ 60 years.
Data set [3] concerns Ser139-phospho-H2AX (γH2AX). Briefly: H2AX phosphorylation in viable peripheral blood cells and CD34+ subset. It counts as in vivo, human.
A short description of data set [4]: Veliparib plasma pharmacokinetics. It counts as in vivo, human. Particulars: for half-life: human, plasma, oral.
Setting [5] is: temozolomide 200 mg/m^2/day alone (day 3), veliparib dose 20–200 mg.
The mark [6] stands for this setting: single dose of veliparib, 6 hours, relative to pretreatment, DL5/DL6.
The mark [7] stands for this setting: veliparib 200 mg, administered alone.

Where “and” joins values, the source holds several entries; their conditions need not be identical. Equal values may be shown once. Read-outs that look alike come from different tables or passages of the source.

The term Cmax denotes the highest concentration seen after dosing. The half-life is the time in which the quantity being followed falls by half. The term Tmax denotes the time from dosing to the highest level. Take `Cn1nnc2c(C(N)=O)ncn2c1=O` [Temozolomide, temozolomide]: the Cmax in data set [1] (human, plasma, oral, Cmax, temozolomide 200 mg/m^2/day in combination with veliparib 20–200 mg (day 8)) was determined as 12000 ± 3800 ng/mL. Further, the half-life in data set [1] (human, plasma, oral, t1/2, temozolomide 200 mg/m^2/day in combination with veliparib 20–200 mg (day 8)) was 1.9 ± 0.4 h. Besides, the Tmax in data set [1] (human, plasma, oral, tmax (median), temozolomide 200 mg/m^2/day in combination with veliparib 20–200 mg (day 8)) amounted to 1 h. In data set [1] (setting [5]), the “Cl/F, Obs.” value was determined as 9.2 ± 3.2 L/h. The “V/F, Obs.” value in data set [1] (setting [5]) came to 25 ± 9.1 L. Besides, in data set [1] (temozolomide 200 mg/m^2/day in combination with veliparib 20–200 mg (day 8)), the V/F is 28±10 (25) L. For the same compound, the “Temozolomide dose at the MTD / RP2D” value in data set [2] (for 7 days, with veliparib 150 mg twice a day) is reported as 200 mg/m^2/day. In addition, the Overall response rate with AML (MGMT+ cases) is given as 6%; in the data set on AML (MGMT− AMLs), 60%. In addition, the “Patients achieving a response” value in the data set with AML (newly diagnosed AML or high-risk MDS with low MGMT expression) is reported as 53%. In addition, the Response rate is listed as 22% in the data set with AML (newly diagnosed AML) and 5% with AML (relapsed/refractory AML).

With `C[C@]1(c2nc3c(C(N)=O)cccc3[nH]2)CCCN1` [Veliparib, veliparib], the “Increase in phospho-H2AX positive CD34+ cells” value in data set [3] (1 patient with HI, day 1) was 2.3 fold; in data set [3] (two patients who achieved CR, day 1, 6 hours post- versus pre-treatment), 2.3 fold and 1.3 fold. In addition, the “Patients with increased H2AX phosphorylation in CD34+ subset” value in data set [3] (setting [6]) is on record as 8 of 12. The “Patients with increased H2AX phosphorylation in PB cells” value in data set [3] (setting [6]) is given as 4 of 12. The “Increase in H2AX phosphorylation in PB cells” value in data set [3] (two patients who achieved CR) was not below 2 fold. The “Maximum tolerated dose (MTD) / RP2D of veliparib” value in data set [2] (given with temozolomide 200 mg/m^2 daily for 7 days, veliparib for 9 days) was found to be 150 mg twice daily. Besides, the half-life was 9.1 ± 8 h in data set [4] (t1/2, veliparib 120 mg in combination with temozolomide 200 mg/m^2/day (day 8)); 5.3 ± 1.7 h in data set [4] (t1/2, veliparib 150 mg in combination with temozolomide 200 mg/m^2/day (day 8)); 3.6 ± 2.8 h in data set [4] (t1/2, veliparib 200 mg in combination with temozolomide 200 mg/m^2/day (day 8)). Moreover, the V/F was 285 ± 175 L in data set [4] (veliparib 20 mg alone (day 1), temozolomide dose 150 or 200 mg/m^2/day); 180±49 (3) L in data set [4] (veliparib 20 mg in combination with temozolomide 150 or 200 mg/m^2/day (day 8)); 181±50 (10) L in data set [4] (veliparib 120 mg alone (day 1), temozolomide dose 200 mg/m^2/day); 191±165 (8) L in data set [4] (veliparib 120 mg in combination with temozolomide 200 mg/m^2/day (day 8)); 190±72 (16) L in data set [4] (veliparib 150 mg alone (day 1), temozolomide dose 200 mg/m^2/day); 109±45 (10) L in data set [4] (veliparib 150 mg in combination with temozolomide 200 mg/m^2/day (day 8)). Further, the V/F is listed as 84±26 (4) L in data set [4] (veliparib 200 mg alone (day 1), temozolomide dose 200 mg/m^2/day) and 77±59 (3) L in data set [4] (veliparib 200 mg in combination with temozolomide 200 mg/m^2/day (day 8)). In addition, the “Increase in AUC at the highest administered dose” value in data set [4] (setting [7]) came out at 1.4 fold. For the same compound, in data set [4] (setting [7]), the “Increase in Cmax at the highest administered dose” value was 2.5 fold.
